Experimental findings from patent publication US6669951B2, “Compositions and methods for enhancing drug delivery across and into epithelial tissues” (CellGate, Inc., priority 1999, dated 2003) are described below.

Read-outs that look alike come from different tables or passages of the source. Square brackets hold non-standard residues; d marks the D form. Peptide text beside a SMILES is read from it. * marks the point of attachment. FITC = O=C1OC2(c3ccc(O)cc3Oc3cc(O)ccc32)c2ccc(NC(=S)*)cc21; Ahx = NCCCCCC(=O)O

Series [1] deals with human skin grafts on SCID mice. Particulars: in vivo. The procedure: Samples (100 μl) were applied as a liquid within excipient and prevented from dispersing by a Vaseline™ barrier and allowed to penetrate for fifteen minutes. At the end of this period animal was sacrificed, the relevant section of skin was excised, embedded in mounting medium (OCT) and frozen. […] Slides were analyzed by fluorescent microscopy.

For the next series, the system named is skin of Balb/C mice. As to conditions: mouse, in vivo. The procedure: Slides were analyzed by fluorescent microscopy.
The test system of another series is skin of nude mice. Put plainly: Penetration of biotinylated conjugates into skin of nude mice (streptavidin staining). As to conditions: for penetration into skin (streptavidin staining): mouse, in vivo; for penetration of drug conjugates into skin: 1 mM-100 μM in PBS, nude mice, thirty, sixty, 120 minutes. The procedure: Samples (100 μl) were applied as a liquid without excipient, prevented from dispersing by a Vaseline™ barrier, and allowed to penetrate for fifteen minutes. At the end of this period the animal was sacrificed, the relevant sections of skin were excised, embedded in mounting medium (OCT), and frozen. Frozen sections (5 microns) were cut using a cryostat, collected on slides, and stained with fluorescently labeled streptavidin (Vector Laboratories, Burlingame, Calif.). The slides were fixed in acetone at 4° C. for ten minutes, air dried, soaked in PBS for five minutes, blocked with normal goat serum for five minutes, and washed with PBS for five minutes. The section was stained by incubation with fluorescently labeled streptavidin at 30 μg/ml for thirty minutes, washed with PBS, counterstained with propidium iodide (1 μg/ml) for two minutes, and the section was mounted with Vectashield™ mounting media. Slides were analyzed by fluorescent microscopy. Parallel studies were done using streptavidin-horse radish peroxidase rather than fluorescein-streptavidin. The biotinylated peptide was visualized by treatment of the sections with the horseradish peroxidase substrate diaminobenzadine, and visualization with light microscopy.
Alternatively, sample (100 μl) was applied as a liquid without excipient and prevented from evaporating by wrapping plastic wrap over the sample sealed with Vaseline™. […] At the end of this period animal was sacrificed, the relevant section of skin was excised, embedded in mounting medium (OCT) and frozen. […] Slides were analyzed by fluorescent microscopy.
At the end of this period animal was sacrificed, the relevant section of skin was excised, embedded in mounting medium (OCT) and frozen. […] Slides were analyzed by fluorescent microscopy
(§1) At the end of this period animal was sacrificed, the relevant section of skin was excised, embedded in mounting medium (OCT) and frozen. […] Slides were analyzed by fluorescent microscopy.
as §1

Series [2] in a line: Half-life / release of conjugate in buffer. Type of series: physicochemical.
In a further series the test system is Caco-2 cells. Nature of the series: Cellular uptake in Caco-2 cells. Type of series: cell-based, human. Particulars: five minutes; for uptake into Caco-2 cells in suspension (flow cytometry): 50-0.8 μM. The procedure:
To analyze the penetration of fluorescent oligomers of D-arginine into the cells when in suspension, the monolayers were treated with trypsin (4.5 ml of a 0.05% solution Gibco, Grand Rapids, Mich.) and the individual cell suspension was spun down.
To analyze the ability of the fluorescent peptides to enter Caco-2 cells when part of a monolayer, the cells were seeded in lab-tek flaskette microscope slides (Nalge Nunc Int., Naperville, Ill.) in 4 ml at a density of 60,000 cells/ml and grown for 21 days with the media being changed every other day. […] The monolayer was subsequently washed with PBS/2% FBS twice to remove labeled peptide and analyzed using fluorescent microscopy.
Varying concentrations of the taxol conjugates (50-0.08 μM) were added to the apical side and exposed to the monolayer of Caco-2 cells for three minutes. The membrane was removed from the apparatus, the cells trypsinized, and the resulting cell suspension was analyzed by flow cytometry (FIG. 33).
Background: A flow cytometer gives signals particle by particle.

The test system of series [3] is Jurkat cells. Put plainly: FACS cellular uptake assay. Type of series: cell-based, human. Particulars: 4 min, 23° C. The procedure:
(§2) The accuracy of this method for determining concentration was established by weighing selected samples and dissolving them in a known amount of PBS buffer. The concentrations determined by UV spectroscopy correlated with the amounts weighed out manually. Jurkat cells (human T cell line), murine B cells (CH27), or human PBL cells were grown in 10% fetal calf serum and DMEM and each of these were used for cellular uptake experiments. […] The microtiter plates were centrifuged and the cells were isolated, washed with cold PBS (3×250 μL), incubated with 0.05% trypsin/0.53 mM EDTA at 37° C. for 5 min, washed with cold PBS, and resuspended in PBS containing 0.1% propidium iodide. The cells were analyzed using fluorescent flow cytometry (FACScan, Becton Dickinson) and cells staining with propidium iodide were excluded from the analysis. The data presented is the mean fluorescent signal for the 5000 cells collected.
Inhibition of Cellular Uptake with Sodium Azide. The assays were performed as previously described with the exception that the cells used were preincubated for 30 min with 0.5% sodium azide in 2% FCS/PBS buffer prior to the addition of fluorescent peptides and the cells were washed with 0.5% sodium azide in PBS buffer. All of the cellular uptake assays were run in parallel in the presence and absence of sodium azide.
To determine the structural requirements for the cellular uptake of short arginine-rich peptides, a series of fluorescently-labeled truncated analogues of Tat49-57 were synthesized using standard solid-phase chemistry. See, e.g., Atherton, E. et al. SOLID-PHASE PEPTIDE […] (IRL: Oxford, Engl. 1989). A fluorescein moiety was attached via an aminohexanoic acid spacer on the amino termini. The ability of these fluorescently labeled peptides to enter Jurkat cells was then analyzed using fluorescent activated cell sorting (FACS). The peptide constructs tested were Tat49-57 (Fl-ahx-[…]; SEQ ID NO:8): Tat49-56 (Fl-ahx-[…]; SEQ ID NO:9), Tat49-55 (Fl-ahx-RKKRRQR; SEQ ID NO: 10), Tat50-57 (Fl-ahx-[…]; SEQ ID NO: 11), and Tat51-57 (Fl-ahx-KRRQRRR; SEQ ID NO: 12). Differentiation between cell surface binding and internalization was accomplished throughout by running a parallel set of assays in the presence and absence of sodium azide. Because sodium azide inhibits energy-dependent cellular uptake but not cell surface binding, the difference in fluorescence between the two assays provided the amount of fluorescence resulting from internalization.

In series [4] the test system is Jurkat cells. Nature of the series: Cellular uptake kinetics assay (Michaelis-Menton). It is filed as cell-based, human. More on the design: Vmax: unit not given here. The procedure: as §2
Cellular Uptake Kinetics Assay. The assays were performed as previously described except the cells were incubated for 0.5, 1, 2, and 4 min at 4° C. in triplicate in 2% FCS/PBS (50 μl) in microtiter plates (96 well). The reactions were quenched by diluting the samples into 2% FCS/PBS (5 mL). The assays were then worked up and analyzed by fluorescent flow cytometry as previously described.
The rates of cellular uptake were determined after incubation (3° C.) of the peptides in Jurkat cells for 30, 60, 120, and 240 seconds (Table 1).

Setting [5] is: Jurkat cells, incubation 30, 60, 120, 240 seconds, 3° C.

In the case of `O=C(O)CCCC[C@@H]1SC[C@@H]2NC(=O)N[C@@H]21` [biotin, reference compound], in series [1], the “penetration into human skin” value is “no staining was apparent”. Moreover, the penetration into skin result in the series with skin of Balb/C mice is given as “no staining was apparent”. Moreover, in the series on skin of nude mice, the “penetration into skin (streptavidin staining)” value was “no staining was apparent”.
By half-life is commonly meant the time needed for the level to fall by half in the phase considered. Consider `C/C=C/C[C@@H](C)[C@@H](OC(=O)CN(Cc1ccccc1)C(=O)CNCC(=O)N[C@H](CCCNC(=N)N)C(=O)N[C@H](CCCNC(=N)N)C(=O)N[C@H](CCCNC(=N)N)C(=O)N[C@H](CCCNC(=N)N)C(=O)N[C@H](CCCNC(=N)N)C(=O)N[C@H](CCCNC(=N)N)C(=O)N[C@H](CCCNC(=N)N)C(=O)O)[C@H]1C(=O)N[C@@H](CC)C(=O)N(C)CC(=O)N(C)[C@@H](CC(C)C)C(=O)N[C@@H](C(C)C)C(=O)N(C)[C@@H](CC(C)C)C(=O)N[C@@H](C)C(=O)N[C@H](C)C(=O)N(C)[C@@H](CC(C)C)C(=O)N(C)[C@@H](CC(C)C)C(=O)N(C)[C@@H](C(C)C)C(=O)N1C` [CGC1072], for which the half-life entry in series [2] (PBS pH 7.4 (37° C. where stated)) was “approximately ninety”; in series [2] (buffer, PBS, pH 7.4 at 37° C., read-out: half life (converted)) it was 1.5 h.
Usually Km stands for the concentration of substrate that gives half-maximal velocity. Turning to `N=C(N)NCCC[C@@H](NC(=O)[C@@H](CCCNC(=N)N)NC(=O)[C@@H](CCCNC(=N)N)NC(=O)[C@@H](CCCNC(=N)N)NC(=O)[C@@H](CCCNC(=N)N)NC(=O)[C@@H](CCCNC(=N)N)NC(=O)[C@@H](CCCNC(=N)N)NC(=O)[C@@H](CCCNC(=N)N)NC(=O)[C@@H](CCCNC(=N)N)NC(=O)CCCCCNC(=S)Nc1ccc2c(c1)C(=O)OC21c2ccc(O)cc2Oc2cc(O)ccc21)C(N)=O` [r9], the “uptake into Caco-2 monolayer on microscope slide” value in the series on Caco-2 cells (50 μM, fluorescent microscopy) is “virtually every cell in the monolayer was fluorescent after five minutes”. In addition, the “uptake into Caco-2 cells in suspension (flow cytometry)” value (“uptake into Caco-2 cells in suspension” below) in the series on Caco-2 cells was “r9 being more effective than r7, which was more effective than r5”. Further, the “cellular uptake compared with d-arginine oligomers / other peptoids” value with Jurkat cells [3] is recorded as “comparable to N-btg9”. Further, the “relative order of cellular uptake” value in the series on Jurkat cells [3] (peptoids and d-arginine oligomers) is reported as “N-hxg9 (6 methylene)>N-btg9 (4 methylene)>r9 (3 methylene)>N-arg9 (3 methylene)>N-etg9 (2 methylene)”. In addition, the “Km values fold greater / fold better than Tat49-57” value in the series with Jurkat cells [4] (Discussion) was 100 fold. Also, in the series with Jurkat cells [4] (setting [5]), the Km stood at 7.6 µM and the Vmax was 0.38. In the series on Jurkat cells [4] (from Km values, Jurkat cells), the “rate of entering cells, fold faster than Tat47-59” value was “approximately 100 fold”.
`N=C(N)NCCC[C@H](NC(=O)[C@H](CCCNC(=N)N)NC(=O)[C@H](CCCNC(=N)N)NC(=O)[C@H](CCCNC(=N)N)NC(=O)[C@H](CCCNC(=N)N)NC(=O)[C@H](CCCNC(=N)N)NC(=O)[C@H](CCCNC(=N)N)NC(=O)CCCCCNC(=S)Nc1ccc2c(c1)C(=O)OC21c2ccc(O)cc2Oc2cc(O)ccc21)C(N)=O` [R7, F1-ahx-RRRRRRR]: in the series on Caco-2 cells, the “uptake into Caco-2 cells in suspension” value is reported as “r9 being more effective than r7, which was more effective than r5”.
Still for that read-out and setting: under `N=C(N)NCCC[C@H](NC(=O)[C@H](CCCNC(=N)N)NC(=O)[C@H](CCCNC(=N)N)NC(=O)[C@H](CCCNC(=N)N)NC(=O)[C@H](CCCNC(=N)N)NC(=O)CCCCCNC(=S)Nc1ccc2c(c1)C(=O)OC21c2ccc(O)cc2Oc2cc(O)ccc21)C(N)=O` [R5, F1-ahx-RRRRR] ({FITC-Ahx}-RRRRR-NH2) stands “r9 being more effective than r7, which was more effective than r5”.
For `N=C(N)NCCC[C@@H](NC(=O)[C@@H](CCCNC(=N)N)NC(=O)[C@@H](CCCNC(=N)N)NC(=O)[C@@H](CCCNC(=N)N)NC(=O)[C@@H](CCCNC(=N)N)NC(=O)[C@@H](CCCNC(=N)N)NC(=O)[C@@H](CCCNC(=N)N)NC(=O)CCCCCNC(=O)CCCC[C@@H]1SC[C@@H]2NC(=O)N[C@@H]21)C(N)=O` [Biotinylated arginine heptamer], in series [1], the “penetration into human skin” value was “crossed into and across the epidermis and into the dermis of the human skin”. In the series on skin of Balb/C mice, the penetration into skin entry was “crossed into and across the epidermis and into the dermis”. The “penetration into skin (streptavidin staining)” value in the series with skin of nude mice is “crossed into and across the epidermis and into the dermis”.
On to `NCCCC[C@@H](NC(=O)[C@@H](CCCCN)NC(=O)[C@@H](CCCCN)NC(=O)[C@@H](CCCCN)NC(=O)[C@@H](CCCCN)NC(=O)[C@@H](CCCCN)NC(=O)[C@@H](CCCCN)NC(=O)CCCCCNC(=S)Nc1ccc2c(c1)C(=O)OC21c2ccc(O)cc2Oc2cc(O)ccc21)C(N)=O` [Fl aca k7, reference compound] ({FITC-Ahx}-[dK][dK][dK][dK][dK][dK][dK]-NH2), for which the “uptake into Caco-2 cells in suspension” value with Caco-2 cells is reported as “All the polymers of arginine entered cells more effectively than the nonamers of lysine”.
In the case of `CC(=O)O[C@H]1C(=O)[C@@]2(C)[C@H]([C@H](OC(=O)c3ccccc3)[C@]3(O)C[C@H](OC(=O)[C@H](OC(=O)NCCCC[C@H](NC(=O)[C@@H](CCCNC(=N)N)NC(=O)[C@@H](CCCNC(=N)N)NC(=O)[C@@H](CCCNC(=N)N)NC(=O)[C@@H](CCCNC(=N)N)NC(=O)[C@@H](CCCNC(=N)N)NC(=O)[C@@H](CCCNC(=N)N)NC(=O)[C@@H](CCCNC(=N)N)NC(=O)[C@@H](CCCNC(=N)N)NC(=O)[C@@H](CCCNC(=N)N)NC(=O)CCCCCNC(=O)CCCC[C@@H]4SC[C@@H]5NC(=O)N[C@@H]54)C(N)=O)[C@@H](NC(=O)c4ccccc4)c4ccccc4)C(C)=C1C3(C)C)[C@]1(OC(C)=O)CO[C@@H]1C[C@@H]2O` [B-aca-r9-K-taxol], the “penetration of drug conjugates into skin” value in the series with skin of nude mice was “effectively entered into and across the epidermis and into the dermis of the skin of nude mice”.
The same measure, in the same setting: as for `CC(=O)O[C@H]1C(=O)[C@@]2(C)[C@H]([C@H](OC(=O)c3ccccc3)[C@]3(O)C[C@H](OC(=O)[C@H](OC(=O)NCCCC[C@H](NC(=O)[C@@H](CCCNC(=N)N)NC(=O)[C@@H](CCCNC(=N)N)NC(=O)[C@@H](CCCNC(=N)N)NC(=O)[C@@H](CCCNC(=N)N)NC(=O)[C@@H](CCCNC(=N)N)NC(=O)CCCCCNC(=O)CCCC[C@@H]4SC[C@@H]5NC(=O)N[C@@H]54)C(N)=O)[C@@H](NC(=O)c4ccccc4)c4ccccc4)C(C)=C1C3(C)C)[C@]1(OC(C)=O)CO[C@@H]1C[C@@H]2O` [B-aca-r5-K-taxol], the entry is “very little uptake was seen”.
